PubChem BioAssay (NCI)
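1) Cells in 96-well plates. 2) Compound, 48 h, 5 concentrations. 3) Linear interpolation between surrounding doses. 4) Unreached endpoint = highest concentration. TGI is the concentration that stops growth completely.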

Experiments:
Assay in all cases: NCI anticancer screen, dose series, 48 h
[1] = tested on: 786-0 renal
[2] = tested on: A549 NSCLC
[3] = tested on: ACHN renal
[4] = tested on: BT-549 breast
[5] = tested on: CAKI-1 renal
[6] = tested on: CCRF-CEM leukemia
[7] = tested on: COLO 205 colon
[8] = tested on: DU-145 prostate
[9] = tested on: EKVX NSCLC
[10] = tested on: HCC-2998 colon
[11] = tested on: HCT-116 colon
[12] = tested on: HCT-15 colon
[13] = tested on: HOP-62 NSCLC
[14] = tested on: HT29 colon
[15] = tested on: IGROV1 ovarian
[16] = tested on: K-562 leukemia
[17] = tested on: KM12 colon
[18] = tested on: LOX IMVI melanoma
[19] = tested on: M14 melanoma
[20] = tested on: MCF7 breast
[21] = tested on: MDA-MB-231 breast
[22] = tested on: MDA-MB-435
[23] = tested on: MDA-N
[24] = tested on: MOLT-4 leukemia
[25] = tested on: NCI-H23 lung
[26] = tested on: NCI-H460 lung
[27] = tested on: NCI-H522 lung
[28] = tested on: NCI/ADR-RES ovarian
[29] = tested on: OVCAR-3 ovarian
[30] = tested on: OVCAR-4 ovarian
[31] = tested on: OVCAR-5 ovarian
[32] = tested on: OVCAR-8 ovarian
[33] = tested on: PC-3 prostate
[34] = tested on: RPMI-8226 leukemia
[35] = tested on: RXF 393 renal
[36] = tested on: SF-268 CNS
[37] = tested on: SF-295 CNS
[38] = tested on: SF-539 CNS
[39] = tested on: SK-MEL-2 melanoma
[40] = tested on: SK-MEL-28 melanoma
[41] = tested on: SK-MEL-5 melanoma
[42] = tested on: SK-OV-3 ovarian
[43] = tested on: SN12C renal
[44] = tested on: SNB-19 CNS
[45] = tested on: SNB-75 CNS
[46] = tested on: SR leukemia
[47] = tested on: SW-620 colon
[48] = tested on: T-47D breast
[49] = tested on: TK-10 renal
[50] = tested on: U251 CNS
[51] = tested on: UACC-257 melanoma
[52] = tested on: UACC-62 melanoma
[53] = tested on: UO-31 renal
[54] = tested on: HL-60(TB) leukemia
[55] = tested on: HOP-92 NSCLC
[56] = tested on: HS 578T breast
[57] = tested on: MALME-3M melanoma
[58] = tested on: NCI-H226 lung

COc1ccc(N[C@H](CSc2ccc(C)cc2)c2ccc(F)cc2)cc1
TGI [1]: > 100 µM
TGI [2]: > 100 µM
TGI [3]: > 100 µM
TGI [4]: > 100 µM
TGI [5]: > 100 µM
TGI [6]: > 100 µM
TGI [7]: > 100 µM
TGI [8]: > 100 µM
TGI [9]: > 100 µM
TGI [10]: > 100 µM
TGI [11]: > 100 µM
TGI [12]: > 100 µM
TGI [13]: > 100 µM
TGI [14]: > 100 µM
TGI [15]: > 100 µM
TGI [16]: > 100 µM
TGI [17]: > 100 µM
TGI [18]: > 100 µM
TGI [19]: > 100 µM
TGI [20]: > 100 µM
TGI [21]: > 100 µM
TGI [22]: > 100 µM
TGI [23]: > 100 µM
TGI [24]: > 100 µM
TGI [25]: > 100 µM
TGI [26]: > 100 µM
TGI [27]: > 100 µM
TGI [28]: > 100 µM
TGI [29]: > 100 µM
TGI [30]: > 100 µM
TGI [31]: > 100 µM
TGI [32]: > 100 µM
TGI [33]: > 100 µM
TGI [34]: > 100 µM
TGI [35]: > 100 µM
TGI [36]: > 100 µM
TGI [37]: > 100 µM
TGI [38]: > 100 µM
TGI [39]: > 100 µM
TGI [40]: > 100 µM
TGI [41]: > 100 µM
TGI [42]: > 100 µM
TGI [43]: > 100 µM
TGI [44]: > 100 µM
TGI [45]: > 100 µM
TGI [46]: > 100 µM
TGI [47]: > 100 µM
TGI [48]: > 100 µM
TGI [49]: > 100 µM
TGI [50]: > 100 µM
TGI [51]: > 100 µM
TGI [52]: > 100 µM
TGI [53]: > 100 µM

N#Cc1nc(-c2cc([N+](=O)[O-])cc([N+](=O)[O-])c2)oc1N
TGI [1]: > 10 µM
TGI [2]: > 10 µM
TGI [3]: > 10 µM
TGI [4]: > 10 µM
TGI [5]: > 10 µM
TGI [6]: > 10 µM
TGI [7]: > 10 µM
TGI [8]: > 10 µM
TGI [9]: > 10 µM
TGI [10]: > 10 µM
TGI [11]: > 10 µM
TGI [12]: > 10 µM
TGI [54]: > 10 µM
TGI [13]: > 10 µM
TGI [55]: > 10 µM
TGI [56]: > 10 µM
TGI [14]: > 10 µM
TGI [15]: > 10 µM
TGI [16]: > 10 µM
TGI [17]: > 10 µM
TGI [18]: > 10 µM
TGI [19]: > 10 µM
TGI [57]: > 10 µM
TGI [20]: > 10 µM
TGI [21]: > 10 µM
TGI [22]: > 10 µM
TGI [23]: > 10 µM
TGI [24]: > 10 µM
TGI [58]: > 10 µM
TGI [25]: > 10 µM
TGI [26]: > 10 µM
TGI [27]: > 10 µM
TGI [28]: > 10 µM
TGI [30]: > 10 µM
TGI [32]: > 10 µM
TGI [33]: > 10 µM
TGI [34]: > 10 µM
TGI [35]: > 10 µM
TGI [36]: > 10 µM
TGI [37]: > 10 µM
TGI [38]: > 10 µM
TGI [40]: > 10 µM
TGI [41]: > 10 µM
TGI [42]: > 10 µM
TGI [43]: > 10 µM
TGI [44]: > 10 µM
TGI [45]: > 10 µM
TGI [46]: > 10 µM
TGI [47]: > 10 µM
TGI [48]: > 10 µM
TGI [49]: > 10 µM
TGI [51]: > 10 µM
TGI [52]: > 10 µM
TGI [53]: > 10 µM
